Laboratory results reported in US4681969A, “Process for the preparation of an enantiomeric pair of isomers of cyfluthrin” (Imperial Chemical Industries PLC, priority 1984, dated 1987).
In brackets after ≈: the same amount, converted by molar mass. Where two headings read alike, the source gives them in different places.

How the values were obtained:
[1] = tested on: Heliothis virescens (tobacco budworm); assay: LC50 against larval tobacco budworm; format: in vivo; conditions: for LC50: read-out: LC50 (concentration required to kill 50% of a population)
Description: The isomers were obtained by the h.p.l.c. technique shown in the next Example.

[2] = relative insecticidal efficacy (general statement); format: in vivo; conditions: Starting Material vs previously described mixture of cis and trans isomers; Racemate vs Starting Material

Row | Compound | LC50 ([1]; larval Heliothis virescens) [µg/mL] | efficacy relative to cyfluthrin ([1]; larval Heliothis virescens, from LC50 values) | relative insecticidal efficacy [2] | LC50 ([1]; Heliothis virescens) [µg/mL]
1 | CC1(C)C(C=C(Cl)Cl)C1C(=O)OC(C#N)c1ccc(F)c(Oc2ccccc2)c1 (racemic) [Cyfluthrin, (R,S)-α-cyano-4-fluoro-3-phenoxybenzyl (1R,S-cis)/(1R,S-trans)-3-(2,2-dichlorovinyl)-2,2-dimethylcyclopropane carboxylate] | 7.1 (≈ 16.3 µM) |  |  | 
2 | CC1(C)[C@H](C(=O)O[C@H](C#N)c2ccc(F)c(Oc3ccccc3)c2)[C@@H]1C=C(Cl)Cl (relative stereo) [1R,cis-S/1S,cis-R, (S)-α-cyano-4-fluoro-3-phenoxybenzyl (1R,cis)-3-(2,2-dichlorovinyl)-2,2-dimethylcyclopropanecarboxylate and its enantiomer, (R)-α-cyano-4-fluoro-3-phenoxybenzyl (1S,cis)-3-(2,2-dichlorovinyl)-2,2-dimethylcyclopropane carboxylate] | 1.8 (≈ 4.14 µM) | about four times more efficacious than cyfluthrin | even more effective insecticidal product | 
3 | CC1(C)[C@H](C(=O)O[C@@H](C#N)c2ccc(F)c(Oc3ccccc3)c2)[C@@H]1C=C(Cl)Cl (relative stereo) [1S,cis-S/1R,cis-R, (R)-α-cyano-4-fluoro-3-phenoxybenzyl (1R,cis)-3-(2,2-dichlorovinyl)-2,2-dimethylcyclopropane carboxylate and (S)-α-cyano-4-fluoro-3-phenoxybenzyl (1S,cis)-3-(2,2-dichlorovinyl)-2,2-dimethylcyclopropane carboxylate] |  |  |  | 23.4 (≈ 53.9 µM)
4 | CC1(C)[C@H](C(=O)OC(C#N)c2ccc(F)c(Oc3ccccc3)c2)[C@@H]1C=C(Cl)Cl (mixture of isomers) [The Starting Material, (RS) -α-cyano-4-fluoro-3-phenoxybenzyl (1RS,cis)-3-(2,2-dichlorovinyl)-2,2-dimethylcyclopropane carboxylate] |  |  | potent insecticide of greater relative efficacy than the previously described mixture of cis and trans isomers | 
5 | CC1(C)[C@H](C=C(Cl)Cl)[C@H]1C(=O)O[C@H](C#N)c1ccc(F)c(Oc2ccccc2)c1 (relative stereo) [1R,trans-S/1S,trans-R] | 3.6 (≈ 8.29 µM) |  |  | 
